Data on 13 substances can be found in PMC7367873, “Dissecting the sequence determinants for dephosphorylation by the catalytic subunits of phosphatases PP1 and PP2A” (Nature Communications, 2020).

The target of the first assay is T1, PP1c (Homo sapiens, UniProt P62136).
T1 construct: His tag with TEV site (N, cleaved yes); intein (pTXB1) (C, cleaved yes); made in house; host or cells: E. coli BL21Star(DE3)pRARE
T1 sequence (P62136 whole entry): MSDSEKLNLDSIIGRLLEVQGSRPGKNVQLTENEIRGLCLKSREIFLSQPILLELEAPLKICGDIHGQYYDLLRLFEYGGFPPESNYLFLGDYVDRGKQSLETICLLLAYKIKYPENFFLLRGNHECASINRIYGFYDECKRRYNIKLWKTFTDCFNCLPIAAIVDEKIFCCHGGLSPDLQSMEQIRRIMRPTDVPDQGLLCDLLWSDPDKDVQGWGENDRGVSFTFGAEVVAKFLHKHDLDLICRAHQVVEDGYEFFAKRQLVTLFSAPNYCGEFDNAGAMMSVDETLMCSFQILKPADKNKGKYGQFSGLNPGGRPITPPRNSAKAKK
Description: Kinetics of phosphopeptide dephosphorylation by PP1c (EnzChek Phosphate Assay). Format: biochemical. As to conditions: non-competitive phosphatase activity assay, Supplementary Fig. 3c. As for the experimental part: (§1) Prior to library dephosphorylation with subsequent MS analysis, as well as for the confirmation of MS results by directed peptide synthesis and dephosphorylation kinetics, the release of phosphate over time from peptides or libraries had to be monitored: The libraries and peptides were dissolved in 25% DMSO and 75% H2O at 10 mM. The EnzChek Phosphate Assay Kit (Thermo Fisher Scientific) was used to assess the kinetics/dynamics of the library or peptide dephosphorylation by PP1c and PP2Ac. The assay was carried out in a volume of 100 µL reaction buffer (20 mM Tris, 100 mM NaCl, 1 mM DTT, 0.15 units PNP, 0.2 mM MESG,) containing 100 µM phosphopeptide library or indicated concentrations of peptide and 25 nM phosphatase. Because of our goal to identify differences in selectivity, we used equimolar concentrations of the phosphatases. […] The change of absorbance was detected at 360 nm at 25 °C on a Synergy H4 microplate reader using the software Gen5. […] For analysis of enzyme kinetics, raw data were further analyzed in GraphPad Prism v6.
(§2) The datasets of Nterm or Cterm libraries treated with recombinant PP1c and PP2Ac were used. […] Data analysis was carried out in GraphPad Prism v6 and the kcat/Km was calculated by comparison to a phosphate standard. […]
As to “AAAApTPFGAK [Cterm peptide with Pro in +1]”, the “dephosphorylation by PP1c of peptide with Pro in +1 (in words)” value was “good substrate”.

Another assay deals with PP1c/PP2Ac. Description: PP1c versus PP2Ac specificity of p-sites (pairwise comparison / hierarchical clustering of phosphoproteomic data). Type of assay: biochemical, human. As to conditions: p-site significantly decreased exclusively by PP1c or PP2Ac; 1 µM phosphatase, HeLa Kyoto lysate, 1 h, 30 °C. As for the experimental part:
For phosphoproteomics, HeLa Kyoto cells were incubated with 20 nM Calyculin A (CST, #9902) for 10–15 min. This time point was determined empirically to yield maximal phosphatase inhibition without cells showing pleiotropic effects. Subsequently, cells were placed on ice and washed twice with cold PBS and scraped in lysis buffer (100 mM NaCl, 10 mM Tris, 0.1% IGEPAL, 1 mM EDTA, 1 mM EGTA, 20 nM Calyculin A, 1x cOmplete Mini protease inhibitor cocktail (Sigma), 1 mM DTT, 1 mM MnCl2, pH 7.5). After 10 pushes through an injection needle (21 G, BD), lysate was cleared from the insoluble fraction by centrifugation (10 min, 10^4 rcf, 4 °C). Protein concentration was then determined by a Bradford Assay and equal amounts of 1 mg total protein were incubated with recombinant PP1c/PP2Ac or buffer at a final phosphatase concentration of 1 µM in a total volume of 200 µL for 1 h at 30 °C. Lysates were then immediately placed on ice. PhosStop […] (Roche) was added and proteins were denatured by adding urea to a final concentration of 8 M taking into account the volume increase. Samples were then snap-frozen in liquid nitrogen for storage and subsequent MS analysis.
Downstream analysis of the phosphoproteomic datasets was carried out using the software tool Perseus[66]. For analysis of phosphoproteomic experiments, row-wise, median-normalized data (see previous section) was linked to known regulatory sites by PhosphoSitePlus entries and categorical columns for treatments were assigned. Reverse peptides and potential contaminants were filtered. Next, categorical columns for biological functions and treatments were assigned. TMT reporter intensities were then transformed into log2. At this point, all data were then filtered for valid values in all three replicates of at least one condition. Next, the distribution of TMT reporter intensities was assessed visually by plotting count-based histogramms and in a multiscatter plot using the Pearson correlation as an estimate of reproducibility. Next, NA (=not available: missing) values were replaced by imputation from a normal distribution (width 0.3, down-shift 1.8, per column). The data quality was routinely assessed by two means: First, by plotting a histogram of peptide length vs. counts and visualization of imputed values to confirm a normal distribution of the data, and secondly by principal component analysis (default settings in Perseus) to judge the sample grouping.
For hierarchical clustering, the results of the one-way ANOVA were processed for two more steps in Perseus: first data were filtered for significant hits from the one-way ANOVA and then subjected to z-transformation. Hierarchical clustering images were produced using Euclidean distance, 300 clusters and 10 rounds of iteration.
Also all further data processing for protein enrichment and extraction of protein sequences in positions −5 to +5 relative to the p-sites of interest for subsequent motif analysis was performed using RStudio with R v3.3.2 using the packages tidyverse and BioStrings. In order to study the sequence specificity of PP1c and PP2Ac on the protein level, position specific probability matrices, representing the relative occurrence for each amino acid surrounding pSer/pThr were produced by extracting sequence information in positions −5 to +5 for all PP1c/PP2Ac-sensitive class I p-sites. Next, the count for each amino acid in each position was divided by the total of all counts for a certain position, resulting in relative abundance. […] Importantly, amino acids with less than 25 counts in PP1-sensitive/-insensitive or PP2A-sensitive/insensitive comparisons were excluded. For calculating a heat map directly comparing PP1c against PP2Ac, these fold changes were divided. […] Obtained p-values were adjusted for multiple testing using the method of Benjamini and Hochberg.
PP1c/PP2Ac-sensitive class I sites were divided into three classes as illustrated for PP1c in Supplementary Fig. 4c. […]
In the case of “SRSF2 189: S/R-rich splicing factor p-site, window RSRSRSRSPPP”, the “Sensitivity (phosphatase exclusively dephosphorylating the p-site)” value is listed as “PP1c”.

In the case of “SRSF4/5/6 113;117;119: S/R-rich splicing factor p-site, window VENLSSRCSWQ”, the “Sensitivity (phosphatase exclusively dephosphorylating the p-site)” value is given as “PP2Ac”.

With “HSF1 303: 14-3-3 interaction site, window KEEPPSPPQSP”, the “Sensitivity (phosphatase exclusively dephosphorylating the p-site)” value was “PP2Ac”.

In the case of “YAP1 127: 14-3-3 interaction site, window VRAHSSPASLQ”, the “Sensitivity (phosphatase exclusively dephosphorylating the p-site)” value is “PP2Ac”.

“SRSF11 207: S/R-rich splicing factor p-site, window AAGLVSPSLKS”: the “Sensitivity (phosphatase exclusively dephosphorylating the p-site)” value was “PP2Ac”.

On to “ISPTIVQQFGYQRRASDDGKLTDPSKTSNTI [RAF1 43]”, for which the “Sensitivity (phosphatase exclusively dephosphorylating the p-site)” value is “PP1c”.

For “HSF1 307: 14-3-3 interaction site, window PSPPQSPRVEE”, the “Sensitivity (phosphatase exclusively dephosphorylating the p-site)” value is “PP2Ac”.

Turning to “HPPRKISTEDINKRLSLPADIRLPEGYLEKL [CDK16 119]”, the “Sensitivity (phosphatase exclusively dephosphorylating the p-site)” value was “PP1c”.

Consider “KRKSKSRSRSKRPPKSPEEEGQMSS______ [SRSF8 273]”, for which the “Sensitivity (phosphatase exclusively dephosphorylating the p-site)” value is reported as “PP1c”.

Consider “SRSF2 191: S/R-rich splicing factor p-site, window RSRSRSPPPVS”, for which the “Sensitivity (phosphatase exclusively dephosphorylating the p-site)” value was “PP1c”.

Take “SRSF1 199: S/R-rich splicing factor p-site, window VDGPRSPSYGR”: the “Sensitivity (phosphatase exclusively dephosphorylating the p-site)” value is listed as “PP1c”.

As for “NIFSRGANRMRGRLGSVDSFERSNSLASEKD [TBC1D4 588]”, the “Sensitivity (phosphatase exclusively dephosphorylating the p-site)” value is listed as “PP1c”.

In another assay the target is T2, PP2Ac (Homo sapiens, UniProt P67775).
T2 construct: purchased Cayman Chemical 10011237
T2 sequence (P67775 1-308 limits assumed): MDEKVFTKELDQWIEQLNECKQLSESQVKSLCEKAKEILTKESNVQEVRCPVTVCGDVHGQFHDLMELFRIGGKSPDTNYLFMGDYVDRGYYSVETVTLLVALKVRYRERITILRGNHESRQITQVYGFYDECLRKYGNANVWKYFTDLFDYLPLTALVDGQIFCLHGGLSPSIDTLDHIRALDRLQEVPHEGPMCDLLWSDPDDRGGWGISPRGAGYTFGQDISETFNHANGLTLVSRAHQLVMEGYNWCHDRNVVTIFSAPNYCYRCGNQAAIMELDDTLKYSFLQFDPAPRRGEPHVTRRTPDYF
Description: Kinetics of phosphopeptide dephosphorylation by PP2Ac (EnzChek Phosphate Assay). Format: biochemical. As to conditions: non-competitive phosphatase activity assay, Supplementary Fig. 3c. The method, then: as §1, §2
As for “AAAApTPFGAK [Cterm peptide with Pro in +1]”, the “dephosphorylation by PP2Ac of peptide with Pro in +1 (in words)” value was “unable to dephosphorylate”.
